Our source for the Cell viability and IC50 values is publication PMC10722324 (Heliyon, 2023).

Series [1] deals with differentiated SH-SY5Y cells. Kind of series: Toxicity screening on differentiated SH-SY5Y cells. It counts as cell-based, human. The note with it: MTT, mean ± SD (n = 5).
Another series addresses Aβ1–42 (Homo sapiens, UniProt P05067). Put plainly: biochemical. The note with it: Aβ aggregation (IC50), Aβ1-42, ThT, 37 °C 48 h, compounds 0–200 μM.
The next series concerns the target BuChE (Homo sapiens, UniProt P06276). Kind of series: biochemical.

Sequence of Aβ1–42 (P05067 672-713): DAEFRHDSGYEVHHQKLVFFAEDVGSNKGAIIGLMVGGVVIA
Sequence of BuChE (P06276 29-602): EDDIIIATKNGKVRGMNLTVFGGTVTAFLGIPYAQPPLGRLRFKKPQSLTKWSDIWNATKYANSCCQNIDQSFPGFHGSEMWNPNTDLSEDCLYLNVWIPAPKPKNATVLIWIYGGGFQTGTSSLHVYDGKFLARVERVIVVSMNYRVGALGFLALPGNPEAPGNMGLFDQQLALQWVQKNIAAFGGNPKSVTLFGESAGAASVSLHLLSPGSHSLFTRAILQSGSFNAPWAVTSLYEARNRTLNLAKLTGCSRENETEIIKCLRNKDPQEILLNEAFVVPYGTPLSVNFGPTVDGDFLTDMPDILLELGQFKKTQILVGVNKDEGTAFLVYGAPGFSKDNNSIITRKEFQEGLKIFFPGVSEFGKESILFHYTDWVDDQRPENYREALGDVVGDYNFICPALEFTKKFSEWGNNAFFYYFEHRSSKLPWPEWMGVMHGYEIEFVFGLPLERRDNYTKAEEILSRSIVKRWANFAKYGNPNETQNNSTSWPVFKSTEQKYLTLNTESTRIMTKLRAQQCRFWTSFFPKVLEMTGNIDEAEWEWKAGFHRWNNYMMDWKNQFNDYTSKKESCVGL

As to `COc1cc(/C=C/C(=O)CC(=O)/C=C/c2ccc(O)c(OC)c2)ccc1O` [Curcumin, reference compound], the Cell viability was 104.1 ± 3.2 % control in series [1] (0.1 μM), 100.4 ± 4.6 % control in series [1] (1 μM), 100.5 ± 7.7 % control in series [1] (10 μM) and 79.1 ± 3.6 % control in series [1] (100 μM).

With `O=c1cc(-c2ccccc2)oc2c1ccc1occc12` [CY14, lanceolatin B], at Aβ1–42, 106 µM corresponded to half-maximal inhibition (IC50). Moreover, the Cell viability in series [1] (0.1 μM) was 102.4 ± 1.3 % control; in series [1] (1 μM) it was 100.1 ± 2.6 % control; in series [1] (10 μM), 97.4 ± 3.2 % control; in series [1] (100 μM), 72.4 ± 3.4 % control.

For `COc1c2ccoc2cc2oc(-c3ccccc3)cc(=O)c12` [CY2, pinnatin], the IC50 (as a rule, the concentration needed to halve the response being measured) was found to be 195 ± 3.2 µM against Aβ1–42 and 82 ± 1.3 µM on BuChE. In addition, the Cell viability in series [1] (0.1 μM) came out at 96.7 ± 3.1 % control; in series [1] (1 μM), 99.3 ± 4.7 % control; in series [1] (10 μM), 96.1 ± 4.3 % control; in series [1] (100 μM) it was 68.5 ± 2.2 % control.

Turning to `COc1c(C(=O)/C=C(\O)c2ccccc2)ccc2occc12` [CY3, pongamol], the IC50 against Aβ1–42 is greater than 200 µM; at BuChE, 102 ± 1.27 µM. Moreover, the Cell viability in series [1] (0.1 μM) was 103.3 ± 1.4 % control; in series [1] (1 μM), 103.6 ± 1.1 % control; in series [1] (10 μM), 104.3 ± 3.8 % control; in series [1] (100 μM), 103.1 ± 4.0 % control.
